The subject of the assay is Fmr1 KO2 mice. Kind of assay: Hyponeophagia (anxiety, latency to eat), Fmr1 KO2 mice. In kind it is in vivo, mouse. From the text: Mutant fmr1 knockout (KO) mice recapitulate the Fragile X syndrome (FXS) phenotype and represent a preclinical model for assessment of putative drug treatments. In this study three different mice models of FXS were used: Fmr1 KO1 is the original Fmr1 knockout animal that carries an insertion in exon 5. See, e.g., Bakker C E, et al., The Dutch-Belgian Fragile X Consortium, Fmr1 knockout mice: A model to study fragile X mental retardation. Cell. 1994; 78:23-33 It is a protein null, although Fmr1 mRNA is still present. It is backcrossed to the C57/B16 strain. Subsequently, these mice were bred into different background strains, such as the FVB inbred mouse strain. Fmr1 KO2 is a null allele at Fmr1 generated by deletion of the promoter and first exon of Fmr1. See, Mientjes, E J et al., The generation of a conditional Fmr1 knock out mouse model to study Fmrp function in vivo. Neurobiology of Disease (2006) 21(3): 549-555. It is both protein and mRNA null. Backcrossed to the C57/B16 strain. Genotyping was accomplished using TransnetXY Automated Genotyping (http://www.transnetyx.com/). TRANSNETYX, INC., 8110 Cordova Rd. Suite 119, Cordova, TN 38016, USA.
The mice were housed in plastic cages (35×30×12 cm), 5 in each and habituated to the animal facilities for at least a week before test. The room temperature (21±2° C.), relative humidity (55±5%), a 12-h light-dark cycle (lights on 7 a.m.-7 p.m.) and air exchange (16 times per h) were automatically controlled. The animals had free access to commercial food pellets and water. Testing was conducted during the light phase. Testing was conducted on Fmr1 knockout mice and their wild-type (WT) littermates. Ten mice per treatment group, 14 weeks of age, were used for behavioral experiments. Experiments were conducted in line with the requirements of the UK Animals (Scientific Procedures) Act, 1986.
Oral dosing was performed by using 1.5-in. curved, 20-gauge, stainless steel feeding needles with a 2.25-mm ball (Braintree Scientific, Braintree, MA). Each gavage treatment was given in 0.5% methyl cellulose (Methyl Cellulose M0512, Sigma-Aldrich, St Louis, MO) used as vehicle with or without treatment compounds. The same veterinarian, blinded to the treatment groups, performed the procedure, and documented animal reactions to oral gavage. Reactions considered to indicate stress were defined as excessive struggling during gavage or abnormal behavior after gavage (labored breathing, frozen stance, exaggerated jumping, shuddering, and hunched posture).
For experiments all mice were tested once in the same apparatus. Prior to testing, mice not in the study were placed in the apparatus for some minutes before the experiment. The apparatus was then cleaned with moist and dry tissues before testing each mouse. The aim was to create a low but constant background mouse odor for all experimental subjects. All experiments were conducted with the experimenters blind to genotype and drug treatment during all testing and data analysis. Separate investigators prepared and coded dosing solutions, allocated the mice to the study treatment groups, dosed the animals, and collected the behavioral data. Data were analyzed by one-way analysis of variance (ANOVA) followed by post-hoc comparisons where appropriate using Tukey's Multiple Comparison Test. Data are represented as the mean and standard error of the mean (SEM).
4. Hyponeophagia (inhibition of feeding) is used as a measure of anxiety which can be produced by a novel environment, particularly in rodents. […]

With `N[C@H]1C=C(C(=O)O)CC1=C(F)F` [Compound, (S)-3-Amino-4-(difluoromethylenyl)cyclopent-1-ene-1-carboxylic acid], the “Hyponeophagia (latency to eat), WT-Veh vs. KO2-Compound: Significant?” value reads like this: (0.01 mg/Kg PO QD seven days) “Yes”; (0.05 mg/Kg PO QD seven days) “No”; (0.1 mg/Kg PO QD seven days) “No”. Besides, the “Hyponeophagia (latency to eat), WT-Veh vs. KO2-Compound: Summary” value is, setting by setting: (0.05 mg/Kg PO QD seven days) “ns”; (0.1 mg/Kg PO QD seven days) “ns”. Also, the “Effect on latency to eat in hyponeophagia test (FIG. 6)” value (0.05 and 0.1 mg/Kg) is listed as “decreasing their latency to eat to virtually control levels”.

The record behind these values is patent US12285397B2, “Use of (s)-3-amino-4-(difluoromethylenyl) cyclopent-1-ene-1-carboxylic acid and related compounds, (1S,3S)-3-amino-4-(difluoromethylidene) cyclopentane-1-carboxylic acid and vigabatrin in the treatment of developmental disorders” (Ovid Therapeutics Inc., priority 2018, dated 2025).
